{"source": "patent US20250332182A1", "about": "“Galactooligosaccharides for improving immune response” (N.V. Nutricia, priority 2021, published 2025)", "key": {"[1]": {"system": "vaccine-specific immunoglobulin", "settings": "vaccinated mice; DON in the diet"}, "[2]": {"system": "IL-4, IL-6, IL-13, TNF-α and MIP-2", "settings": "re-stimulated splenocytes of vaccinated mice; dietary DON"}, "T1ST2+Th2 cells": {"system": "T1ST2+Th2 cells", "settings": "spleen; DON in the diet"}, "CD25+ FoxP3+ Treg cells": {"system": "CD25+ FoxP3+ Treg cells", "settings": "spleen of vaccinated mice; DON in the diet"}, "CXCR3+Th1 cells": {"system": "CXCR3+Th1 cells", "settings": "spleen; DON in the diet"}}}
{"smiles": "CC1=C[C@H]2O[C@@H]3[C@H](O)C[C@](C)([C@@]2(CO)[C@H](O)C1=O)[C@]31CO1", "note": "[DON, deoxynivalenol]", "values": [{"measurement": "vaccine-specific immunoglobulin production", "setting": "[1]", "value": "reduced"}, {"measurement": "concentrations of IL-4, IL-6, IL-13, TNF-α and MIP-2 in cell supernatants", "setting": "[2]", "value": "No significant effect"}, {"measurement": "effect on T1ST2+Th2 cells", "setting": "T1ST2+Th2 cells", "value": "No significant effect"}, {"measurement": "percentage of CD25+ FoxP3+ Treg cells", "setting": "CD25+ FoxP3+ Treg cells", "value": "not significantly affected"}, {"measurement": "effect on CXCR3+Th1 cells", "setting": "CXCR3+Th1 cells", "value": "No significant effect"}]}
